Test results taken from doi:10.1101/2025.03.10.642353v1, “Deciphering the role of histo-blood group antigens in bovine rotavirus C infection” (biorxiv, 2025).

Biological target: T1, bovine P[3] RVC VP8* (Bovine rotavirus C, UniProt L0N4C6)
T1 construct: gene VP4; VP8* galectin-like domain of polyprotein-like spike VP4 (trypsin-cleaved), residues 64-228 (E64-R228), synthetic codon-optimised gene, pGEX-2T N-terminal GST, E. coli BL21(DE3)
Assay: STD NMR (binding epitope mapping)
Settings: PBS in D2O, pH 7.4, 278 K; 50 uM protein, 2 mM ligand; both anomers of reducing GlcNAc
Description: STD NMR (binding epitope mapping) on bovine P[3]

`CC(=O)N[C@H]1C(O)O[C@H](CO)[C@@H](O[C@@H]2O[C@H](CO)[C@H](O)[C@H](O)[C@H]2O[C@@H]2O[C@@H](C)[C@@H](O)[C@@H](O)[C@@H]2O)[C@@H]1O` (stereo partly drawn) [H2, Fuc-α1,2-Gal-β1,4-GlcNAc] was tested, and the “STD NMR (binding epitope mapping)” value was “All performed STD NMR experiments showed clear signals confirming the binding of H2 antigen”.
